Assays:
A549 [1] = experiment: Antiproliferative activity against human A549 cells measured after 48 hrs in presence of NQO1 inhibitor dicoumarol by MTT assay; format: functional, cell-based; conditions: A549, 48 h
L02 = experiment: Cytotoxicity against human L02 cells measured after 48 hrs by MTT assay; format: cell-based; conditions: L02, 48 h
A549 [2] = experiment: cells; conditions: Homo sapiens, A549, 48 h
NCI-H596 = experiment: Antiproliferative activity against human NCI-H596 cells measured after 48 hrs by MTT assay; format: functional, cell-based; conditions: NCI-H596, 48 h
HepG2 = experiment: Antiproliferative activity against human HepG2 cells measured after 48 hrs by MTT assay; conditions: HepG2, 48 h
[3] = biological target: NAD(P)H dehydrogenase [quinone] 1 (Homo sapiens, UniProt P15559); experiment: Substrate activity at recombinant human C-terminal His-tagged NQO1 (1 to 274 residues) expressed in Escherichia coli assessed as metabolic rate by measuring NADPH oxidation per micromol protein at 10 mmol/L measured at 5 secs interval for 1 min by UV-Visible Spectrophotometric method; format: ADME
in vitro = conditions: human, L02 cells and A549 cells

IC50 (A549 [1]) [nM] | IC50 (A549 [2]) [nM] | IC50 (NCI-H596) [nM] | IC50 (HepG2) [nM] | Drug metabolism [3] | SMILES | IC50 (L02) [nM] | selectivity ratio (in vitro)
1210 | 490 | 10900 | 1340 | 539 micromol/min/micromol protein | Cc1cc(O)cc(C2NC(=S)NC3=C2C(=O)C(=O)c2ccccc23)c1 (stereo not given) | 8410 | 17.2
1330 | 1020 | 3090 | 1400 | 1273 micromol/min/micromol protein | O=C1C(=O)c2ccccc2C2=C1C(c1cccc(O)c1Cl)NC(=S)N2 (stereo not given) | 1640 | 1.61
1550 | 480 | 1610 | 1310 | 1083 micromol/min/micromol protein | O=C1C(=O)c2ccccc2C2=C1C(c1cc(O)ccc1Br)NC(=S)N2 (stereo not given) | 1510 | 3.15
1500 | 320 | 2520 | 1700 | 1427 micromol/min/micromol protein | COc1ccc2c(c1)C1=C(C(=O)C2=O)C(c2cc(C)cc(O)c2)NC(=S)N1 (stereo not given) | 1860 | 5.81
1590 | 870 | 1580 | 1340 | 1513 micromol/min/micromol protein | O=C1C(=O)c2cc(F)ccc2C2=C1C(c1cccc(O)c1)NC(=S)N2 (stereo not given) | 1490 | 1.71
1200 | 1320 | 1080 | – | – | COc1cccc2c1C(=O)c1c(O)c3c(c(O)c1C2=O)C[C@@](O)(C(=O)CO)C[C@@H]3O[C@H]1C[C@H](N)[C@H](O)[C@H](C)O1 [DOXORUBICIN] | 2180 | –
3000 | 2420 | 7600 | 3200 | 852 micromol/min/micromol protein | O=C1C(=O)c2ccccc2C2=C1C(c1cc(O)cc(Br)c1)NC(=S)N2 (stereo not given) | 3050 | 1.26
1430 | 960 | 17100 | 1690 | 941 micromol/min/micromol protein | O=C1C(=O)c2ccccc2C2=C1C(c1cc(O)cc(Cl)c1)NC(=S)N2 (stereo not given) | 4580 | 4.77
1510 | 980 | 7690 | 1190 | 528 micromol/min/micromol protein | O=C1C(=O)c2ccccc2C2=C1C(c1cc(O)ccc1F)NC(=S)N2 (stereo not given) | 1560 | 1.59

— ChEMBL document CHEMBL4765385, “Synthesis and biological evaluation of β-lapachone-monastrol hybrids as potential anticancer agents” (Eur J Med Chem, 2020)
